Results from the CheMixHub ionic liquid set.

Experiment: xn = mol fraction of the nth substance listed

O=C1CCCO1 + C[NH+](C)C.O=S(=O)([N-]S(=O)(=O)C(F)(F)F)C(F)(F)F
Settings | viscosity [mPa·s]
333.15 K, 101 kPa, x1 = 1 | 1.08

CCCC[N+]1(C)CCCC1.O=S(=O)([N-]S(=O)(=O)C(F)(F)F)C(F)(F)F + Cc1ccccc1
viscosity [mPa·s], 100 kPa
Settings | x2 = 0 | x2 = 0.3041 | x2 = 0.3965 | x2 = 0.5054 | x2 = 0.6027 | x2 = 0.7066
298.15 K | 70.1 | – | – | 14.96 | 10.08 | –
303.15 K | – | 25.03 | 18.66 | – | – | –
313.15 K | 37.99 | 18.55 | 14.35 | – | – | 4.73

O=C[C@H](O)[C@@H](O)[C@H](O)[C@H](O)CO + Cn1cc[n+](CCC[n+]2ccn(C)c2)c1.[Br-].[Br-] + O
101 kPa, x2 = 0, x1 = 0.001799
Settings | viscosity [mPa·s]
293.15 K | 1.043
298.15 K | 0.927
303.15 K | 0.83
308.15 K | 0.754
313.15 K | 0.683

Fc1ccccn1 + Fc1cccc[nH+]1.O=S(=O)([O-])C(F)(F)F
100 kPa
Settings | electrical conductivity [S/m]
242.8 K, x1 = 0.9 | 0.096
252.7 K, x1 = 0.9 | 0.144
262.8 K, x1 = 0.5 | 0.0069
282 K, x1 = 0.95 | 0.497
282.5 K, x1 = 0.5 | 0.023
282.5 K, x1 = 0.9 | 0.576
286.9 K, x1 = 0.95 | 0.564
292.7 K, x2 = 0.01 | 0.174
301.5 K, x1 = 0.9 | 0.75

C=CCn1cc[n+](C)c1.[I-] + II
Settings | electrical conductivity [S/m]
298 K, 101.3 kPa, x1 = 0.25 | 4.21

CCCC[N+]1(C)CCCC1.N#C[N-]S(=O)(=O)C(F)(F)F + N#C[N-]S(=O)(=O)C(F)(F)F.[Li+]
101 kPa, frequency 0 MHz, x2 = 0
Settings | electrical conductivity [S/m]
308 K | 0.644
313 K | 0.752

101 kPa, x2 = 0
Settings | viscosity [mPa·s]
308 K | 33.6
313 K | 28.6

CCCCCCCCn1cc[n+](C)c1.F[B-](F)(F)F + NC(N)=O + O
298.15 K, 100 kPa
Settings | viscosity [mPa·s]
x2 = 0, x3 = 0.9487 | 5.25
x2 = 0.008492, x3 = 0.9402 | 5.16
x2 = 0.01695, x3 = 0.9318 | 5.13
x2 = 0.03322, x3 = 0.9155 | 5.12
x2 = 0.0408, x3 = 0.9079 | 5.13

CCCCCCCCn1cc[n+](C)c1.[Br-] + NC(N)=O + O
298.15 K, 100 kPa
Settings | viscosity [mPa·s]
x2 = 0, x3 = 0.9008 | 31.3
x2 = 0, x3 = 0.9487 | 7.96
x2 = 0.008063, x3 = 0.8927 | 31.3
x2 = 0.008505, x3 = 0.9402 | 7.68
x2 = 0.01609, x3 = 0.8847 | 31.2
x2 = 0.02499, x3 = 0.9237 | 7.49
x2 = 0.03154, x3 = 0.8693 | 30.7
x2 = 0.03316, x3 = 0.9155 | 7.32
x2 = 0.03874, x3 = 0.8621 | 30.7
x2 = 0.04082, x3 = 0.9079 | 7.14

CCCCCCCCCCCCCCCC[n+]1ccccc1.O=C([O-])c1ccccc1O + NCC(=O)NCC(=O)O + O
electrical conductivity [S/m], 101 kPa
Settings | 293.15 K | 298.15 K | 303.15 K | 308.15 K | 313.15 K
x2 = 0.0009002, x1 = 3.6e-07 | 0.0016 | 0.0019 | 0.00224 | 0.00265 | 0.00314
x2 = 0.0009002, x1 = 7.2e-07 | 0.00178 | 0.0021 | 0.00248 | 0.0029 | 0.00341
x2 = 0.0009002, x1 = 1.09e-06 | 0.00197 | 0.00232 | 0.00272 | 0.00318 | 0.00371
x2 = 0.0009002, x1 = 1.27e-06 | 0.00204 | 0.00241 | 0.00282 | 0.00329 | 0.00384
x2 = 0.0009002, x1 = 1.63e-06 | 0.00215 | 0.00253 | 0.00296 | 0.00345 | 0.00402
x2 = 0.0009002, x1 = 1.99e-06 | 0.00228 | 0.00269 | 0.00318 | 0.00366 | 0.00426
x2 = 0.0009002, x1 = 2.36e-06 | 0.00242 | 0.00285 | 0.00336 | 0.00389 | 0.00452
x2 = 0.0009002, x1 = 2.72e-06 | 0.00254 | 0.00298 | 0.0035 | – | 0.00473
x2 = 0.0009002, x1 = 3.08e-06 | 0.00261 | 0.00307 | 0.0036 | 0.00419 | 0.00487
x2 = 0.0009002, x1 = 3.44e-06 | 0.00272 | 0.00319 | 0.00373 | 0.00434 | 0.00504
x2 = 0.0009002, x1 = 3.81e-06 | 0.00285 | 0.00334 | 0.00389 | 0.00452 | 0.00524
x2 = 0.0009002, x1 = 4.35e-06 | 0.00298 | 0.00348 | 0.00404 | 0.00468 | 0.00543
x2 = 0.0009002, x1 = 4.71e-06 | 0.00311 | 0.00362 | 0.00422 | 0.00487 | 0.00562
x2 = 0.0009002, x1 = 5.26e-06 | 0.00322 | 0.00374 | 0.00435 | 0.00501 | 0.00579
x2 = 0.0009002, x1 = 5.62e-06 | 0.00334 | – | 0.0045 | 0.00518 | 0.00595
x2 = 0.001799, x1 = 1.8e-07 | 0.00253 | 0.00303 | 0.00363 | 0.00434 | 0.00519
x2 = 0.001799, x1 = 3.6e-07 | 0.0026 | 0.00311 | 0.00371 | 0.00444 | 0.00529
x2 = 0.001799, x1 = 5.5e-07 | 0.00269 | 0.00321 | 0.00382 | 0.00456 | –
x2 = 0.001799, x1 = 7.3e-07 | 0.00282 | 0.00336 | 0.00389 | 0.00475 | 0.00563
x2 = 0.001799, x1 = 9.1e-07 | 0.00291 | 0.00345 | 0.0041 | 0.00487 | 0.00576
x2 = 0.001799, x1 = 1.28e-06 | 0.00301 | 0.00357 | 0.00422 | 0.00501 | 0.00592
x2 = 0.001799, x1 = 1.46e-06 | 0.00313 | 0.0037 | 0.00438 | 0.00519 | 0.00613
x2 = 0.001799, x1 = 1.82e-06 | 0.00325 | 0.00384 | 0.00454 | 0.00537 | 0.00632
x2 = 0.001799, x1 = 2.19e-06 | 0.00335 | 0.00397 | 0.00469 | 0.00555 | 0.00653
x2 = 0.001799, x1 = 2.55e-06 | 0.00347 | 0.0041 | 0.00484 | 0.00572 | 0.00673
x2 = 0.001799, x1 = 2.92e-06 | 0.00355 | 0.00419 | 0.00495 | 0.00584 | 0.00688
x2 = 0.001799, x1 = 3.1e-06 | – | – | – | – | 0.00701
x2 = 0.001799, x1 = 3.46e-06 | 0.00371 | 0.00437 | 0.00515 | 0.00607 | 0.00715
x2 = 0.001799, x1 = 3.83e-06 | 0.00379 | 0.00447 | 0.00526 | 0.00619 | 0.00728
x2 = 0.001799, x1 = 4.01e-06 | – | – | – | – | 0.00738
